Measurements published in patent US4857549A, “Antitumor compounds” (priority 1988, dated 1989).
Where “and” joins values, the source holds several entries; their conditions need not be identical. Identical values can stand only once. Like-named read-outs stand apart in the source and are kept apart here.

How the values were obtained:
[1] = system: B16 melanoma cells (highly metastatic subline, F10); test: B16 melanoma in vitro cloning (colony forming) assay, 2 hour exposure; format: cell-based; conditions: read-out: IC50: concentration which inhibits cloning efficiency of B16 melanoma cells by 50%
Protocol: Initially, the cytotoxic activity of the Formula (I) and Formula (IA) compounds used in the pharmaceutical compositions and methods of treatment of the instant invention was evaluated in vitro using B16 melanoma cells according to the following assay:
B16 melanoma (highly metastatic subline, F10) are used and maintained as monolayer cultures in Minimal Essential Media (Grand Island Biological Co., Grand Island, N.Y. ) supplemented with 10% calf serum, 1% antibiotics in a 5% CO2 humidified incubator at 37° C. Asynchronous populations of cells are harvested and replated to 5000 cells/plate in sterile 60 mm×15 mm petri plates. Plates are incubated overnight to allow attachment of the cells to the plate. Cells are treated with a Formula (I) or Formula (IA) compound or cisplatin under sterile conditions, allowed to react for 2 hours followed by aspiration of medium. Plates are washed one time with 5 ml of phosphate buffered saline (PBS), followed by the addition of 5 ml of fresh media. Plates are incubated for 5 days at 37° in a CO2 incubator. Viability is measured by the ability of a cell to form a colony of greater than 50 cells. Colonies are fixed with 0.5% crystal violet in 95% ethanol. Plates are dried and counted with a Biotran III Automatic Count Totalizer (New Brunswick Scientific Co., Edison, N.J.). Mean and standard deviation of triplicate samples are determined for each drug concentration. The data are analyzed by plotting the log of the survival fraction (number of colonies in drug treated plates/number of colonies in controls) versus the drug concentration.
^(a) concentration which inhibits cloning efficiency of B16 melanoma
cells by 50% on a 2hour exposure.

[2] = system: M5076 reticulum cell sarcoma; test: ip M5076 reticulum cell sarcoma assay in mice; conditions: for MTD (maximally tolerated dose): B6D2F1 female mice; for MTD (maximally tolerated dose) / ILS max (maximum increase in lifespan): ip qD × 10; for ILS max (maximum increase in lifespan): ip M5076 sarcoma mice, slash = separate experiments; for activity in the ip M5076 reticulum cell sarcoma assay: in words, based on Tables C and D
Protocol: (§1) Another chemosensitive tumor model is intraperitoneally (ip) implanted M5076 reticulum cell sarcoma in mice. In this system B6D2F1 female mice are inoculated with 0.5 ml of a 10 percent weight:volume (w:v) brei of M5076 prepared from pooled subcutaneous (sc) tumors excised at about 21 days from c57B1/6 donor mice. Drugs are administered ip. Daily treatment is begun 24 hours after implantation and is continued for ten days. The treatment regimen for M5076 is more prolonged than for P388 because of the slower growth rate and longer control survival time of the M5076 tumor.

[3] = system: human tumor colony forming units; test: human tumor cloning assay (all tumor types); format: cell-based
Protocol: The cytotoxic activity of Compound No. 2 from TABLE A, namely μ-[1,2-bis(diphenylphosphino)ethane]bis-[chlorogold (I)], was also determined in a human tumor cloning assay. This procedure is described as follows:
[Salmon, et al., N. Engl. J. Med., 298:1321 (1978)].

[4] = system: ADJ-PC6 Plasmacytoma; test: ADJ-PC6 plasmacytoma assay
Protocol: (§2) Tumor cells are carried by serial sc passage in BALB/c female mice and then collected aseptically on ca. Day 21 and minced in Hank's balanced salt solution. The cells are then dispersed by homogenization in a loose-fitting teflon glass homogenizer, and cell concentration is adjusted to 4×10^6 viable ([…]) cells per ml by hemocytometer counts. A total of 0.5 ml (2×10^6 cells) is implanted sc on the right flank of BALB/c female mice in groups of 8. Treatment is given ip on Days 1-10, and tumors are measured in perpendicular diameters with a vernier caliper on Day 18.
(§3) ^(b) maximally tolerated dose for BALB/c female mice on an ip qD

[5] = system: P388 leukemia; conditions: for MTD (maximally tolerated dose): B6D2F1 female mice, ip qD × 5; for ILS (maximum increase in lifespan): ip P388 leukemia mice, ip days 1-5, slash-separated figures are separate experiments
[6] = system: Ovary tumor; conditions: Table 3, Ovary; response = ≤50% survival of tumor colony forming units
From the text: (§5) Tumor Specimens: Specimens were collected using asceptic technique and transported in medium containing Penicillin, Streptomycin, and Amphotericin B. Specimens which could not be immediately processed were minced into fragments 5 mm^3 or smaller, prior to transport. Effusions were collected with ten units of preservative free heparin per ml of effusion. Specimens were processed to obtain cell suspensions as soon as possible after removal from the patient.
(§6) Culture Methods: A two-layer soft agar culture system was used in these studies. […] Cell counts were performed on a hemacytometer after lysis of erythrocytes in acetic acid. A total of 500,000 nucleated cells were plated in a volume of 1 ml (0.3 percent agar) over 1 ml base layers (0.6 percent agar) in each culture. Cultures were incubated in humidified 37° C. incubators with an atmosphere of 5 percent CO2 in air and control plates monitored for growth using an inverted microscope. At the time of maximum colony formation (7-21 days in culture) final colony counts were obtained with a Bausch and Lomb FAS II image analysis system. Objects presenting a circular profile in two dimensions with a minimum diameter of 60 μm were scored as colonies by the system.
(§7) Drug Treatment: A total of six untreated or vehicle treated cultures were plated for determination of control growth in each experiment. […]

[7] = system: Breast tumor; conditions: Table 3, Breast; response = ≤50% survival of tumor colony forming units
From the text: as §5, §6, §7

[8] = system: Lung tumor; conditions: Table 3, Lung; response = ≤50% survival of tumor colony forming units
From the text: as §5, §6, §7

[9] = system: Unknown primary tumor; conditions: Table 3, Unknown primary; response = ≤50% survival of tumor colony forming units
From the text: as §5, §6, §7

[10] = system: Kidney tumor; conditions: Table 3, Kidney; response = ≤50% survival of tumor colony forming units
From the text: as §5, §6, §7

[11] = system: Corpus uterus tumor; conditions: Table 3, Corpus uterus; response = ≤50% survival of tumor colony forming units
From the text: as §5, §6, §7

[12] = system: Melanoma; conditions: Table 3, Melanoma; response = ≤50% survival of tumor colony forming units
From the text: as §5, §6, §7

[13] = system: B16 melanoma; test: in vivo ip B16 melanoma assay; conditions: for MTD (maximally tolerated dose): B6D2F1 mice
Protocol: (§8) The cytotoxic activity of several compounds of Formula (I) was evaluated in vivo using B16 melanoma cells according to the following assay:
(§9) In this system, groups of eight B6D2F1 mice are inoculated ip with 0.5 ml of a 10% (w:v) brei of B16 melanoma prepared from pooled sc tumors excised at 14.noteq.21 days from C67B1 /6 donor mice. Daily treatment is begun 24 hours after tumor implantation and is continued daily for 10 days. The route of drug administration is ip. The mice are monitored daily for survival for 60 days. Antitumor activity is assessed by prolongation of median survival time.

[14] = system: mammary adenocarcinoma 16/c; test: sc mammary adenocarcinoma 16/c assay; conditions: for MTD (maximally tolerated dose): C3H mice, intermittent ip regimen
Protocol: (§10) The mammary adenocarcinoma 16/c tumor is implanted sc in C3H mice, and the Formula (I) compound is administered ip on days 1, 5, 9, 13 and 17. Tumors are measured 3 weeks after implantation, and activity is assessed by degree of tumor growth inhibition.

[15] = ADJ-PC6 plasmacytoma assay; conditions: mouse, in vivo, ip
Protocol: as §2, §3

[16] = ip Lewis Lung tumor assay; format: in vivo; set-up: ILS: dose or concentration left out as unconfirmed; conditions: in vivo; q4D×4 regimen
From the text: (§4) The protocol for carrying out this tumor assay is well known to those of skill in the art.

[17] = system: Lewis Lung tumor; test: ip Lewis Lung tumor assay; format: in vivo; set-up: ILS: dose or concentration left out as unconfirmed; conditions: at MTD of […] mg/kg, q4D×4 regimen
From the text: as §4

[18] = system: cells; conditions: Struck et al., J. Med. Chem. (1966); cited from earlier work
[19] = in vivo; conditions: mouse, ip
[20] = in vivo ip B16 melanoma assay; conditions: mouse, in vivo, ip
Protocol: as §8, §9

[21] = sc mammary adenocarcinoma 16/c assay; conditions: mouse, in vivo
Protocol: as §10

[22] = ip Madison 109 lung carcinoma tumor assay; conditions: in vivo
[23] = system: Madison 109 lung carcinoma; test: ip Madison 109 lung carcinoma tumor assay; conditions: at MTD of 16 mg/kg, q4D×4 regimen
[24] = ip M5076 reticulum cell sarcoma assay in mice; conditions: mouse, in vivo, ip
Protocol: as §1

[25] = Table C, compound 2: seven experiments
[26] = Table 1, ≤30% survival of tumor colony forming units, 10 μg/ml, continuous exposure
[27] = Table 1, ≤50% survival of tumor colony forming units, 10 μg/ml, continuous exposure
[28] = Table 3, all tumor types, response = ≤50% survival of tumor colony forming units
[29] = Mus musculus, B16, Table AI, Formula (IA)

Compound: [Cl][Au][PH](CC[PH]([Au][Cl])(c1ccccc1)c1ccccc1)(c1ccccc1)c1ccccc1 [Compound 2, μ-[1,2-bis(diphenylphosphino)ethane]bis-[chlorogold (I)]]
- IC50 ([1]; Table A, Formula (I)): 8 µM
- MTD (maximally tolerated dose) ([2]; Table C): 4 mg/kg
- ILS max (maximum increase in lifespan) [2, 25]: 76 ± 30%
- activity in the ip M5076 reticulum cell sarcoma assay [2]: good activity
- # responses ≤30%/# evaluable [3, 26]: 6/19
- responses ≤30% (% of evaluable) [3, 26]: 32%
- # responses ≤50%/# evaluable [3, 27]: 11/19
- responses ≤50% (% of evaluable) [3, 27]: 58%
- # responses/# evaluable, TOTALS [3, 28]: 11/19
- responses, TOTALS (% of evaluable) [3, 28]: 58%
- in vitro cytotoxic activity against primary human tumor cells ([3]; in words): substantial in vitro cytotoxic activity
- % Inhibition of tumor growth ([4]; Table G, ip days 1-10, tumors measured day 18, slash = separate experiments): 96% and 93%
- antitumor activity in ADJ-PC6 Plasmacytoma ([4]; in words, based on Table G): excellent antitumor activity
- MTD (maximally tolerated dose) ([5]; Table B): 6 mg/kg
- # responses/# evaluable [6]: 4/6
- # responses/# evaluable [7]: 1/3
- # responses/# evaluable [8]: 1/3
- # responses/# evaluable [9]: 2/3
- # responses/# evaluable [10]: 2/2
- # responses/# evaluable [11]: 1/1
- # responses/# evaluable [12]: 0/1
- MTD (maximally tolerated dose) ([13]; Table E, ip qD × 10): 5 um/kg
- MTD (maximally tolerated dose) ([14]; Table F): 9 um/kg

Compound: [Br][Au][PH](CC[PH]([Au][Br])(c1ccccc1)c1ccccc1)(c1ccccc1)c1ccccc1 [Compound 15]
- ILS max (maximum increase in lifespan) [2, 25]: 69%
- ILS (maximum increase in lifespan) ([5]; Table B, compound 2: 35 experiments): 116% and 80%
- MTD (maximally tolerated dose) ([13]; Table E, ip qD × 10): 13 um/kg
- ILS (maximum increase in lifespan) ([13]; Table E, ip B16 melanoma mice, ip qD × 10, slash = separate experiments): 49% and 41%
- MTD (maximally tolerated dose) ([14]; Table F): 26 um/kg
- Inhibition (tumor growth inhibition) ([14]; Table F, sc tumor, ip days 1, 5, 9, 13, 17, slash = separate experiments): 79%

Compound: [Cl][Au][PH](CC[PH]([Au][Cl])(C1CCCCC1)C1CCCCC1)(C1CCCCC1)C1CCCCC1 [Compound 22, μ-[1,2-Bis(Dicyclohexylphosphino)Ethane]Bis[Chlorogold(I)]]
- IC50 ([1]; Table A, Formula (I)): 14 µM
- MTD (maximally tolerated dose) ([2]; Table C): 8 mg/kg
- ILS max (maximum increase in lifespan) [2, 25]: 27%
- MTD (maximally tolerated dose) ([5]; Table B): 16 mg/kg

Compound: c1ccc(P(CCP(c2ccccc2)c2ccccc2)c2ccccc2)cc1 [Compound 33, bis(1,2-diphenylphosphino)-ethane]
- IC50 [1, 29]: 60 µM
- MTD (maximally tolerated dose) ([2]; Table D): 6 mg/kg
- ILS max (maximum increase in lifespan) ([2]; Table D): 70% and 96% and 68%
- MTD [15]: 4 mg/kg
- MTD ([4]; one experiment): 6 mg/kg
- tumor growth inhibition ([4]; one experiment, at MTD of 6 mg/kg): 94%
- tumor growth inhibition ([4]; second experiment, at MTD of 4 mg/kg): 49%
- MTD [16]: 12 mg/kg
- ILS [17]: 69%
- ILS (maximum increase in lifespan) ([5]; Table BI, compound 33: 41 experiments): 98 ± 26%
- alleged cytotoxic activity [18]: alleged cytotoxic activity
- MTD [19]: 16 mg/kg
- MTD [20]: 5 mg/kg
- ILS ([13]; at MTD of 5 mg/kg, three separate experiments, listed as Compound No. 2 from Table BI, 5 mg/kg): 64% and 49% and 39%
- MTD ([21]; ip): 30 mg/kg
- MTD ([21]; iv): 32 mg/kg
- tumor inhibition ([14]; iv, at MTD of 32 mg/kg): 95%
- MTD [22]: 16 mg/kg
- ILS [23]: 50%

Compound: C(=C/P(c1ccccc1)c1ccccc1)/P(c1ccccc1)c1ccccc1 [Compound 34, cis-bis(1,2-diphenylphosphino)ethylene]
- IC50 [1, 29]: 25 µM
- MTD [24]: 5 mg/kg
- ILS max (maximum increase in lifespan) ([2]; Table D): 57%
- activity in the ip M5076 reticulum cell sarcoma assay [2]: good activity
- MTD [19]: 24 mg/kg

Compound: CC(CP(c1ccccc1)c1ccccc1)P(c1ccccc1)c1ccccc1 (stereo not drawn) [Compound 35, Bis(1,2-diphenylphosphino)propane]
- IC50 [1, 29]: 50 µM
- MTD (maximally tolerated dose) ([2]; Table D): 24 mg/kg
- ILS max (maximum increase in lifespan) ([2]; Table D): 62%
- MTD [19]: 32 mg/kg

Compound: C[C@H](CP(c1ccccc1)c1ccccc1)P(c1ccccc1)c1ccccc1 [Compound 36, R-(+)-bis(1,2-diphenylphosphino)propane]
- IC50 [1, 29]: 50 µM
- MTD [19]: 32 mg/kg

Compound: c1ccc(P(CCCP(c2ccccc2)c2ccccc2)c2ccccc2)cc1 [Compound 37, bis(1,3-diphenylphosphino)propane]
- IC50 [1, 29]: 72 µM
- MTD [19]: 32 mg/kg

Compound: c1ccc(P(c2ccccc2)c2ccccc2P(c2ccccc2)c2ccccc2)cc1 [Compound 40, Bis(1,2-Diphenylphosphino)Benzene]
- IC50 [1, 29]: 28 µM
- MTD [19]: 32 mg/kg

Compound: [2H]c1c([2H])c([2H])c(P(CCP(c2c([2H])c([2H])c([2H])c([2H])c2[2H])c2c([2H])c([2H])c([2H])c([2H])c2[2H])c2c([2H])c([2H])c([2H])c([2H])c2[2H])c([2H])c1[2H] [Compound 43, 1,2-Ethanediyl-bis[di(phenyl-d5)phosphine]]
- IC50 [1, 29]: 50 µM
- MTD [19]: 24 mg/kg

Compound: N.N.[Cl][Pt][Cl] [cisplatin, reference compound]
- activity of positive control in ip M5076 ([2]; all experiments, active = average ≥25 percent ILS): active in all experiments
- tumor growth inhibition by positive control ([4]; in words): complete tumor growth inhibition
- inhibition of growth of mammary adenocarcinoma 16/c by positive control ([14]; in words, generally produced): complete inhibition
